Assay results taken from patent US8404670B2 (Sunovion Pharmaceuticals Inc., priority 2009, dated 2013).

Biological target: T1, human histamine H3 receptor (Homo sapiens, UniProt Q9Y5N1)
T1 construct: host or cells: cells expressing the human H3 receptor
Test: H3 GTPγS assay (SPA method), histamine H3 in vitro assay
Assay type: biochemical
Settings: GTPγ[35S] binding to membranes of cells expressing human H3; antagonist mode with R-γ-Me-Histamine at EC80 (30 nM); in one embodiment HCl salts tested; read-out: Potency (functional potency as indicated by IC50)

T1 sequence (Q9Y5N1 whole entry): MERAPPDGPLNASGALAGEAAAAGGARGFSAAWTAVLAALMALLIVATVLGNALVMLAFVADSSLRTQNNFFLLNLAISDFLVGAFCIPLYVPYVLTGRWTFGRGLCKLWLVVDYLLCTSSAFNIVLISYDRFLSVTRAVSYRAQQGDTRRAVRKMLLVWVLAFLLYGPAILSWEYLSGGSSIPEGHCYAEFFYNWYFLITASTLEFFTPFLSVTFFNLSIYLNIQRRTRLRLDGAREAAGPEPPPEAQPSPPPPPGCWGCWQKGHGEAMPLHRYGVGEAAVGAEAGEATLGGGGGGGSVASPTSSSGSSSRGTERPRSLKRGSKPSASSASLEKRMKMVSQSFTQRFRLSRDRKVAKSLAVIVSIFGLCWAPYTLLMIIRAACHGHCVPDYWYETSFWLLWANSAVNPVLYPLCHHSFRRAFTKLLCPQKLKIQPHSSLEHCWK

**Q.** How did the IC50 turn out when `CC1CCCC1N1CCc2nc3cc(-c4ccc(C#N)cc4)ccc3n2CC1` (racemic) [Compound 35, rac-cis/trans-4-(3-(2-methylcyclopentyl)-2,3,4,5-tetrahydro-1H-[1,4]diazepino[1,7-a]benzimidazol-9-yl)benzonitrile] was run?
**A.** Its IC50 is at most 10 nM.

**Q.** How did the IC50 turn out when `c1cc2c(cc1C1CCCN(C3CCC3)C1)nc1n2CCN(C2CCC2)CC1` (stereo not drawn) [Compound 128, 3-cyclobutyl-8-(1-cyclobutylpiperidin-3-yl)-2,3,4,5-tetrahydro-1H-benzo[4,5]imidazo[1,2-d][1,4]diazepine] was run?
**A.** Its IC50 is at most 10 nM.

**Q.** Which IC50 does the source give for `c1cc2nc3n(c2cc1CN1CCCC1)CCN(C1CCC1)CC3` [Compound 89] here?
**A.** Its IC50 is at most 10 nM.

**Q.** For `c1nc2cc(-c3ccc4c(c3)nc3n4CCN(C4CCC4)CC3)ccc2[nH]1` [Compound 217, 8-(1H-benzo[d]imidazol-5-yl)-3-cyclobutyl-2,3,4,5-tetrahydro-1H-benzo[4,5]imidazo[1,2-d][1,4]diazepine], which IC50 is on record?
**A.** Its IC50 is at most 100 nM.

**Q.** `c1ncc(CN2CCc3nc4cc(-c5ccc6[nH]ccc6c5)ccc4n3CC2)[nH]1` [Compound 20] was tested. Which IC50 did it give?
**A.** Its IC50 is at least 1000 nM.

**Q.** With `c1c2c(cc3c1nc1n3CCN(C3CCC3)CC1)CN(CC1CC1)C2` [Compound 147, 8-cyclobutyl-2-(cyclopropylmethyl)-1,2,3,6,7,8,9,10-octahydro-[1,4]diazepino[1′,7′:1,2]imidazo[4,5-f]isoindole] as the compound, how does the IC50 read?
**A.** Its IC50 is at most 10 nM.

**Q.** Which IC50 does the source give for `c1csc(N2CCN(c3ccc4c(c3)nc3n4CCN(C4CCC4)CC3)CC2)n1` [Compound 232, 2-(4-(3-cyclobutyl-2,3,4,5-tetrahydro-1H-benzo[4,5]imidazo[1,2-d][1,4]diazepin-8-yl)piperazin-1-yl)thiazole] here?
**A.** Its IC50 is at most 10 nM.

**Q.** `c1cc2c(cc1N1CCCC1)nc1n2CCN(C2CCC2)CC1` [Compound 226, 3-cyclobutyl-8-(pyrrolidin-1-yl)-2,3,4,5-tetrahydro-1H-benzo[4,5]imidazo[1,2-d][1,4]diazepine] was tested. Which IC50 did it give?
**A.** The IC50 was at most 100 nM.

**Q.** With `c1cc2c(cc1-c1ccc3cncn3c1)nc1n2CCN(C2CCC2)CC1` [Compound 198, 3-cyclobutyl-8-(imidazo[1,5-a]pyridin-6-yl)-2,3,4,5-tetrahydro-1H-benzo[4,5]imidazo[1,2-d][1,4]diazepine] as the compound, how does the IC50 read?
**A.** The IC50 was at most 10 nM.

**Q.** For `c1cnnc(-c2ccc3c(c2)nc2n3CCN(C3CCC3)CC2)c1` [Compound 125, 3-cyclobutyl-8-(pyridazin-3-yl)-2,3,4,5-tetrahydro-1H-benzo[4,5]imidazo[1,2-d][1,4]diazepine], which IC50 is on record?
**A.** Its IC50 is at most 100 nM.

**Q.** `c1ncn(-c2ccc3c(c2)nc2n3CCN(C3CCC3)CC2)n1` [Compound 152, 3-cyclobutyl-8-(1H-1,2,4-triazol-1-yl)-2,3,4,5-tetrahydro-1H-benzo[4,5]imidazo[1,2-d][1,4]diazepine] was tested. Which IC50 did it give?
**A.** The IC50 was at most 100 nM.

**Q.** `CC(=O)N1CCc2cc3nc4n(c3cc2C1)CCN(C1CCC1)CC4` [Compound 194, 1-(9-cyclobutyl-3,4,8,9,10,11-hexahydro-1H-[1,4]diazepino[1′,7′:1,2]imidazo[4,5-g]isoquinolin-2(7H)-yl)ethanone] was tested. Which IC50 did it give?
**A.** The IC50 was at most 100 nM.

**Q.** With `CC(=O)N1CCc2c(ccc3c2nc2n3CCN(C3CCC3)CC2)C1` [Compound 188, 1-(10-cyclobutyl-9,10,11,12-tetrahydro-1H-[1,4]diazepino[1′,7′:1,2]imidazo[4,5-f]isoquinolin-3(2H,4H,8H)-yl)ethanone] as the compound, how does the IC50 read?
**A.** Its IC50 is at most 1000 nM.

**Q.** For `c1cc2c(cc1-c1ccc3c(c1)nc1n3CCN(C3CCC3)CC1)OCO2` [Compound 210, 8-(benzo[d][1,3]dioxol-5-yl)-3-cyclobutyl-2,3,4,5-tetrahydro-1H-benzo[4,5]imidazo[1,2-d][1,4]diazepine], which IC50 is on record?
**A.** Its IC50 is at most 10 nM.

**Q.** Which IC50 does the source give for `c1ccc2c(c1)ncn2-c1ccc2c(c1)nc1n2CCN(C2CCC2)CC1` [Compound 68] here?
**A.** The IC50 was at most 10 nM.

**Q.** How did the IC50 turn out when `c1cc2c(cc1N1CCC(N3CCOCC3)CC1)nc1n2CCN(C2CCC2)CC1` [Compound 225, 4-(1-(3-cyclobutyl-2,3,4,5-tetrahydro-1H-benzo[4,5]imidazo[1,2-d][1,4]diazepin-8-yl)piperidin-4-yl)morpholine] was run?
**A.** The IC50 was at most 10 nM.

**Q.** For `FC1CCCN(Cc2ccc3c(c2)nc2n3CCN(C3CCC3)CC2)C1` (stereo not drawn) [Compound 161, 3-cyclobutyl-8-((3-fluoropiperidin-1-yl)methyl)-2,3,4,5-tetrahydro-1H-benzo[4,5]imidazo[1,2-d][1,4]diazepine], which IC50 is on record?
**A.** The IC50 was at most 10 nM.

**Q.** With `c1cnc(OCc2ccc3nc4n(c3c2)CCN(C2CCC2)CC4)cn1` [Compound 113, 3-cyclobutyl-9-((pyrazin-2-yloxy)methyl)-2,3,4,5-tetrahydro-1H-[1,4]diazepino[1,7-a]benzimidazole] as the compound, how does the IC50 read?
**A.** Its IC50 is at most 1000 nM.

**Q.** With `O=C(NCc1ccc2c(c1)nc1n2CCN(C2CCC2)CC1)OCc1ccccc1` [Compound 141, benzyl((3-cyclobutyl-2,3,4,5-tetrahydro-1H-benzo[4,5]imidazo[1,2-d][1,4]diazepin-8-yl)methyl)carbamate] as the compound, how does the IC50 read?
**A.** The IC50 was at most 100 nM.

**Q.** For `c1cc2c(cc1-c1cnc3[nH]ncc3c1)nc1n2CCN(C2CCC2)CC1` [Compound 223, 3-cyclobutyl-8-(1H-pyrazolo[3,4-b]pyridin-5-yl)-2,3,4,5-tetrahydro-1H-benzo[4,5]imidazo[1,2-d][1,4]diazepine], which IC50 is on record?
**A.** Its IC50 is at most 10 nM.

**Q.** Which IC50 does the source give for `CC(=O)N1CCN(c2ccc3c(c2)nc2n3CCN(C3CCC3)CC2)CC1` [Compound 167, 1-(4-(3-cyclobutyl-2,3,4,5-tetrahydro-1H-benzo[4,5]imidazo[1,2-d][1,4]diazepin-8-yl)piperazin-1-yl)ethanone] here?
**A.** Its IC50 is at most 10 nM.

**Q.** Which IC50 does the source give for `Cc1cn2cc(-c3ccc4c(c3)nc3n4CCN(C4CCC4)CC3)ccc2n1` [Compound 195, 3-cyclobutyl-8-(2-methylimidazo[1,2-a]pyridin-6-yl)-2,3,4,5-tetrahydro-1H-benzo[4,5]imidazo[1,2-d][1,4]diazepine] here?
**A.** Its IC50 is at most 10 nM.

**Q.** For `c1cc2c(cc1N1CCN(CC3CC3)CC1)nc1n2CCN(C2CCC2)CC1` [Compound 104, 3-cyclobutyl-9-(4-(cyclopropylmethyl)piperazin-1-yl)-2,3,4,5-tetrahydro-1H-[1,4]diazepino[1,7-a]benzimidazole], which IC50 is on record?
**A.** The IC50 was at most 10 nM.

**Q.** With `CC(=O)Nc1ccc(-c2ccc3c(c2)nc2n3CCN(C(C)C3CCC3)CC2)cc1` (stereo not drawn) [Compound 7] as the compound, how does the IC50 read?
**A.** Its IC50 is at most 1000 nM.

**Q.** With `O=C(c1ccc2c(c1)nc1n2CCN(C2CCC2)CC1)N1CCCC1` [Compound 60] as the compound, how does the IC50 read?
**A.** The IC50 was at most 100 nM.

**Q.** With `Cc1nn(C)c(C)c1-c1ccc2c(c1)nc1n2CCN(C2CCC2)CC1` [Compound 26] as the compound, how does the IC50 read?
**A.** The IC50 was at most 1000 nM.

**Q.** For `NCCc1ccc2c(c1)nc1n2CCN(C2CCC2)CC1` [Compound 138, 2-(3-cyclobutyl-2,3,4,5-tetrahydro-1H-benzo[4,5]imidazo[1,2-d][1,4]diazepin-8-yl)ethanamine], which IC50 is on record?
**A.** Its IC50 is at most 100 nM.

**Q.** Which IC50 does the source give for `Cc1nnnn1-c1ccc2c(c1)nc1n2CCN(C2CCC2)CC1` [Compound 156, 3-cyclobutyl-8-(5-methyl-1H-tetrazol-1-yl)-2,3,4,5-tetrahydro-1H-benzo[4,5]imidazo[1,2-d][1,4]diazepine] here?
**A.** Its IC50 is at most 100 nM.

**Q.** Which IC50 does the source give for `c1cnc(Nc2ccc3c(c2)nc2n3CCN(C3CCC3)CC2)cn1` [Compound 65, 3-cyclobutyl-N-(pyrazin-2-yl)-2,3,4,5-tetrahydro-1H-[1,4]diazepino[1,7-a]benzimidazol-9-amine] here?
**A.** The IC50 was at most 100 nM.

**Q.** Which IC50 does the source give for `NCc1ccc(-c2ccc3c(c2)nc2n3CCN(C3CCC3)CC2)cc1` [Compound 1, 3-cyclobutyl-9-(4-(aminomethyl)phenyl)-2,3,4,5-tetrahydro-1H-[1.4]diazepino[1,7-a]benzimidazole] here?
**A.** The IC50 was at most 10 nM.

**Q.** `c1ccc(N2CCN(c3ccc4nc5n(c4c3)CCN(C3CCC3)CC5)CC2)nc1` [Compound 234, 3-cyclobutyl-9-(4-(pyridin-2-yl)piperazin-1-yl)-2,3,4,5-tetrahydro-1H-benzo[4,5]imidazo[1,2-d][1,4]diazepine] was tested. Which IC50 did it give?
**A.** The IC50 was at most 100 nM.

**Q.** `OCc1ccc2nc3n(c2c1)CCN(C1CCC1)CC3` [Compound 110, 2-(3-cyclobutyl-2,3,4,5-tetrahydro-1H-[1,4]diazepino[1,7-a]benzimidazol-8-yl)methanol] was tested. Which IC50 did it give?
**A.** The IC50 was at most 1000 nM.

**Q.** Which IC50 does the source give for `c1nc2ccc(-c3ccc4c(c3)nc3n4CCN(C4CCC4)CC3)cn2n1` [Compound 203, 8-([1,2,4]triazolo[1,5-a]pyridin-6-yl)-3-cyclobutyl-2,3,4,5-tetrahydro-1H-benzo[4,5]imidazo[1,2-d][1,4]diazepine] here?
**A.** Its IC50 is at most 100 nM.

**Q.** With `c1cc2c(cc1N1CCN(C3CCCCC3)CC1)nc1n2CCN(C2CCC2)CC1` [Compound 102] as the compound, how does the IC50 read?
**A.** Its IC50 is at most 10 nM.

**Q.** How did the IC50 turn out when `N#Cc1ccc(C(=O)N2CCc3cc4nc5n(c4cc3C2)CCN(C2CCC2)CC5)cc1` [Compound 192, 4-(9-cyclobutyl-2,3,4,7,8,9,10,11-octahydro-1H-[1,4]diazepino[1′,7′:1,2]imidazo[4,5-g]isoquinoline-2-carbonyl)benzonitrile] was run?
**A.** Its IC50 is at most 100 nM.

**Q.** With `c1cc2c(cc1N1CCCCC1)nc1n2CCN(C2CCC2)CC1` [Compound 175, 3-cyclobutyl-8-(piperidin-1-yl)-2,3,4,5-tetrahydro-1H-benzo[4,5]imidazo[1,2-d][1,4]diazepine] as the compound, how does the IC50 read?
**A.** Its IC50 is at most 10 nM.

**Q.** For `c1cc(-c2ccc3c(c2)nc2n3CCN(C3CCC3)CC2)nc(N2CCCC2)n1` [Compound 131, 3-cyclobutyl-8-(2-(pyrrolidin-1-yl)pyrimidin-4-yl)-2,3,4,5-tetrahydro-1H-benzo[4,5]imidazo[1,2-d][1,4]diazepine], which IC50 is on record?
**A.** Its IC50 is at most 10 nM.

**Q.** With `FC1CCN(Cc2ccc3c(c2)nc2n3CCN(C3CCC3)CC2)C1` (stereo not drawn) [Compound 165, 3-cyclobutyl-8-((3-fluoropyrrolidin-1-yl)methyl)-2,3,4,5-tetrahydro-1H-benzo[4,5]imidazo[1,2-d][1,4]diazepine] as the compound, how does the IC50 read?
**A.** Its IC50 is at most 100 nM.

**Q.** `COc1ccnc(OCc2ccc3nc4n(c3c2)CCN(C2CCC2)CC4)n1` [Compound 111] was tested. Which IC50 did it give?
**A.** Its IC50 is at most 1000 nM.

**Q.** `O=C(c1cnccn1)N1CCCC(c2ccc3c(c2)nc2n3CCN(C3CCC3)CC2)C1` (stereo not drawn) [Compound 173, (3-(3-cyclobutyl-2,3,4,5-tetrahydro-1H-benzo[4,5]imidazo[1,2-d][1,4]diazepin-8-yl)piperidin-1-yl)(pyrazin-2-yl)methanone] was tested. Which IC50 did it give?
**A.** Its IC50 is at most 100 nM.

**Q.** How did the IC50 turn out when `N#Cc1ccc(-c2ccc3c(c2)nc2n3CCN(C3CCC3)CC2)cn1` [Compound 27, 5-(3-cyclobutyl-2,3,4,5-tetrahydro-1H-[1,4]diazepino[1,7-a]benzimidazol-9-yl)-picolinonitrile] was run?
**A.** The IC50 was at most 10 nM.

**Q.** Which IC50 does the source give for `CN1CCC(N2CCc3nc4cc(-c5ccc6[nH]ccc6c5)ccc4n3CC2)CC1` [Compound 13] here?
**A.** The IC50 was at least 1000 nM.
